Data published in publication PMC3646888 (PLoS ONE, 2013).

Biological target: T1, CYP1A2r (Rattus norvegicus, UniProt P04799)
T1 sequence (P04799 1-513): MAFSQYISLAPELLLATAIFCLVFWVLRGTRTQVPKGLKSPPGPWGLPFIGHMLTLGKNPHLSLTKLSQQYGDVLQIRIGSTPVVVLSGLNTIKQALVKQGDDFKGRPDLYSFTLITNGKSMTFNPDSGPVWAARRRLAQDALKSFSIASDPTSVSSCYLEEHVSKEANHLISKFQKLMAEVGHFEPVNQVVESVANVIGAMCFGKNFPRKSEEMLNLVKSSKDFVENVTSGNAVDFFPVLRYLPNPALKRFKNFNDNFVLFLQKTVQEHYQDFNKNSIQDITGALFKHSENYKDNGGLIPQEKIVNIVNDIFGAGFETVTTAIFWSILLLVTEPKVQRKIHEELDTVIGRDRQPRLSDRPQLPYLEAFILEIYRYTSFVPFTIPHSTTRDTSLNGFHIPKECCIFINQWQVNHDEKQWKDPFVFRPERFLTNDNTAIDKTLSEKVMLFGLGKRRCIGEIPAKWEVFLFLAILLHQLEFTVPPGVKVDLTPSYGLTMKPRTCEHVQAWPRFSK
Test: Fluorescence-based CYP assay, recombinant CYP1A2r, substrate EFC
Type: in vitro ADME
Conditions: concentrations up to 80 µM
Experimental: These assays were performed by methods similar to those described by VanAlstine and Hough, Stresser et al., Wulff et al., Henderson et al., and Crespi et al., with minor modifications. All incubations were performed in a final volume of 200 µL of 50 mM potassium phosphate buffer at pH 7.4 containing 1% acetonitrile. CYP inhibitor studies were performed according to the parameters of Table 1. Substrate concentrations were chosen to be near known Km values. As described in the references cited, two different NADPH regenerating systems were used depending on the substrates used (Table 1). […] Samples were pre-incubated at 37°C for the designated times, and the reactions were initiated with the addition of a substrate and enzyme mixtures (Table 1). […] For the assays utilizing the “high” regenerating system, enzyme reactions were terminated at the designated time by the addition of 75 µL of 2N NaOH, followed by a 2 h post-incubation at 37°C. Product formation was then measured at the designated wavelengths (Table 1). For the “low” regenerating system assays, blanks and standards were prepared in 0.1 mL buffer without the regenerating system. For the “high” regenerating system assays, blanks and standards containing 0.1 mL of buffer received 75 µL of 2N NaOH following pre-incubation.

Clc1ccc(COC(Cn2ccnc2)c2ccc(Cl)cc2Cl)c(Cl)c1 (stereo not shown) [miconazole] was tested, and the “Inhibition of CYP1A2r (in words)” value was “did not inhibit”.
